Measurements taken from patent US9226912B2, “Acetyltanshinone IIA (ATA) as anticancer agent” (Nanyang Technological University, priority 2011, dated 2016).

Legend:
[1] = tested on: ROS in MDA-MB-435 cells; experiment: ROS generation and its prevention by PG; assay type: cell-based, human; conditions: pre-treating cells with 20 μM PG
Procedure: (A) PG prevented ATA-induced cell death. Three concentrations of PG were tested for their protective effects on ATA-induced cell death. The cell viability was measured by SRB assay. (* p<0.01). (B) PG protected ROS generation caused by ATA treatment. […] All the experiments were performed at least three times. The results presented in this figure are the average of three experiments. Error bar represents standard deviation. Scale bar=20 μm.
(§1) It was further tested, whether PG could prevent ROS generation after ATA treatment.

[2] = tested on: Bax and cytochrome c in MDA-MB-435 cells; experiment: Bax translocation and cytochrome c release, cell fractionation Western blot and immunofluorescence; assay type: cell-based, human; conditions: 20 μM PG, 5 μM ATA, 24 h
Procedure: The concentration of ATA and PG were 5 μM and 20 μM, respectively. […] Scale bar=10 μm.
The value of CY/MT represents the ratio of integrated band intensity of cytosol fraction (CY) over corresponding integrated band intensity of mitochondrial fraction (MT). The ratio was normalized by the control group. Two proteins were used as internal markers to judge the quality of cell fractionation experiment: Cox IV for mitochondria and β-tubulin mainly for cytosol.
The subcellular localization changes of Bax and cytochrome c during ATA-induced apoptosis were first examined using immunofluorescence staining.
as §1

[3] = tested on: MCF-7 cells; experiment: Combinatorial effect of ATA with paclitaxel, MTT assay; assay type: cell-based; conditions: Homo sapiens, MCF7, paclitaxel alone at 1 nM, read-out: cell growth inhibition rate
Procedure: The effect was determined by measuring the rates of cell growth inhibition using MTT assay. (* p<0.01, compared with cells treated with either paclitaxel alone or ATA alone).
The inventors of the present invention have shown for the first time that ATA can increase the cytotoxic effect of paclitaxel. In the tests (FIG. 16) with five concentrations of ATA at 10, 5, 2.5, 1.25, 0.625 μM and five concentrations of paclitaxel at 1000, 100, 10, 1, 0.1 nM were used.

[4] = tested on: MCF-7/HER2 cells; experiment: Growth inhibition of HER2 over-expressing cells at 72 h; assay type: cell-based; conditions: paclitaxel 1×10^−3 μM to 10 μM; ATA 0.78 μM to 6.25 μM
Description: The efficacy of ATA on MCF-7 cells with over-expressed HER2 protein was investigated.

[5] = biological target: T1, ERα in BT474 cells (Homo sapiens, UniProt P03372); experiment: ERα protein level by Western blotting; assay type: cell-based; conditions: 6 μM ATA or 1 μM fulvestrant
T1 construct: endogenous in cells; host or cells: BT474 human breast cancer cells
T1 sequence (P03372 whole entry): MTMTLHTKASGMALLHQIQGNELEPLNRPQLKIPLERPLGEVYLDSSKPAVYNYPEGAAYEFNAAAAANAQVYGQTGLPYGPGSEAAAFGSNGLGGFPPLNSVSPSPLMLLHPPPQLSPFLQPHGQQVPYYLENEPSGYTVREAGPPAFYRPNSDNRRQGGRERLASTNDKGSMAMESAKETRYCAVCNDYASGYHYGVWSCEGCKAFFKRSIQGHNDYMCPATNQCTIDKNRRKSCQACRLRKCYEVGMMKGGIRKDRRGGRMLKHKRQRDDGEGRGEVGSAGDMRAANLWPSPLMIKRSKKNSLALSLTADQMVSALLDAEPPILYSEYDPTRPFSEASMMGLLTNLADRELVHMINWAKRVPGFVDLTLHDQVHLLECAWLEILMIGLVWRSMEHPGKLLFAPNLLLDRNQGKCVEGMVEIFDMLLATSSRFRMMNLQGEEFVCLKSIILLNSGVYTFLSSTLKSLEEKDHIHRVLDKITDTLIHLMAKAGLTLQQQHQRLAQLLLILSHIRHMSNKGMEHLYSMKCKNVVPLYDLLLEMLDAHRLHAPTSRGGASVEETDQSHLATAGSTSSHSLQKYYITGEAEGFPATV
Procedure: Cells were treated with 6 μM ATA or 1 μM fulvestrant for indicated times and analyzed by Western blotting.

[6] = tested on: GREB1 mRNA in MCF-7 cells; experiment: Real-time PCR of GREB1 mRNA level; conditions: 100 pM estrogen plus 6 μM compound, 24 h, normal medium
Procedure: In order to do so, the mRNA level of a non-ER regulated gene GAPDH was measured and used as a reference. MCF-7 cells cultured in the charcoal-stripped medium were used as a control.

[7] = tested on: ESR1 mRNA in MCF-7 cells; experiment: Real-time PCR of ESR1 mRNA level; conditions: 100 pM estrogen plus 6 μM compound, 24 h
Procedure: MCF-7 cells cultured in the charcoal-stripped medium were used as control for the 0 h sample.

[8] = tested on: HeLa cells; experiment: ATA-induced cell death by cell counting under a microscope; assay type: cell-based; conditions: 2 μM z-VAD-fmk pre-treatment 2 h, then 10 or 20 μM ATA, 24 h and 48 h
Procedure: HeLa cells were treated with 10 μM ATA for 12, 24, 36, and 48 h. The β-tubulin protein was probed as a loading control. […] HeLa cells were pre-treated with 2 μM pan-caspase inhibitor (z-VAD-fmk) for 2 h before ATA addition. Then 10 μM or 20 μM ATA were added. After 24 h and 48 h treatment, the number of died cells was counted under a microscope. (* p<0.01, compared with cells treated with ATA only). Control: cells without any treatment.
Overexpression of Bcl-2 inhibited ATA-induced cell death. HeLa cells transfected with either yellow fluorescent protein (YFP) (vector control) or YFP-Bcl-2 (Bcl-2) were treated with ATA at 10 or 20 μM. The percentage of cell death from YFP-positive cells was determined by cell counting under a fluorescence microscope. (* p<0.01, compared with vector control groups).
The inventors of the present invention have shown for the first time that ATA can activate the apoptotic pathway in cancer cells. […]
HeLa cells transfected with YFP-Bcl-2 or YFP only were treated with 10 μM or 20 μM ATA. After 24 h or 48 h treatment, the percentage of cell death in each sample was calculated by counting the numbers of fluorescence-positive cells either live (attached with a normal cell morphology) or dead (detached with a shrunk morphology) under a fluorescence microscope. […]

CCCOC(=O)c1cc(O)c(O)c(O)c1 [PG, propyl gallate, reference compound] was tested, and the “effect on ATA-induced ROS level increase” value [1] was “completely prevented” and the “effect on Bax translocation and cytochrome c release in ATA-treated cells” value [2] was “could effectively prevent”.
In the case of CC(=O)O[C@H]1C(=O)[C@@]2(C)[C@H]([C@H](OC(=O)c3ccccc3)[C@]3(O)C[C@H](OC(=O)[C@H](O)[C@@H](NC(=O)c4ccccc4)c4ccccc4)C(C)=C1C3(C)C)[C@]1(OC(C)=O)CO[C@@H]1C[C@@H]2O [paclitaxel, reference compound], the inhibition at 0.001 µM [3] is reported as ~40% and the “sensitivity of MCF-7/HER2 cells compared with MCF-7 cells” value [4] is reported as “more resistance to paclitaxel than MCF-7 cells”.
With C[C@]12CC[C@@H]3c4ccc(O)cc4C[C@@H](CCCCCCCCC[S+]([O-])CCCC(F)(F)C(F)(F)F)[C@H]3[C@@H]1CC[C@@H]2O (stereo partly drawn) [Fulvestrant, fulvestrant, reference compound] the “level of ERα” value [5] was “only reduced ERα”.
For CC/C(=C(\c1ccccc1)c1ccc(OCCN(C)C)cc1)c1ccccc1 [tamoxifen, reference compound], the “GREB1 level of the control” value [6] was “comparable”, the “level of ESR1 mRNA over control” value ([7]; charcoal-stripped medium) was “about 70%” and the “level of ESR1 mRNA over control” value ([7]; normal medium) was “only slightly decreased”.
z-VAD-fmk [reference compound] was tested, and the “effect on ATA-induced cell death” value [8] was “could be inhibited”.
